Assay results published in US10822376B2, “Biologically active peptides” (Baxalta Incorporated, priority 2008, dated 2020).
≈ marks a conversion by molar mass, not a printed value. Read-outs that look alike come from different tables or passages of the source. Where a SMILES comes first, the peptide text is derived from it. Where no end group is shown, it is not given here. [ ]: non-standard residue; d: D form.

What was measured:
[1] = tested on: Factor VII/VIIa deficient human plasma; experiment: DDPTGA (reagent B) in FVII depleted plasma; conditions: compounds at 50 μM and 80, 90 or 100 μM
Method: (§4) The Defined Dual-Pathway Thrombin Generation Assay is performed as described below, using a commercial test kit (Technothrombin TGA, Technoclone GmbH, Vienna, Austria). […] USA) are incubated four minutes at 37° C. Preferably, Reagent C high is used. Thrombin generation is started by the addition of 40 μl of one of several types of human plasma (37° C.). […] By deviating the original fluorescence data the amount of generated thrombin is calculated from a standard curve constructed using a concentration range of thrombin.
(§5) The in vitro thrombin generation assay based on the cleavage of Z-GGR-AMC to release the fluorophore AMC, described in the specific description, i.e. the Defined Dual-Pathway Thrombin Generation Assay was used to characterise the effect of the compounds in several depleted human plasmas. […] 10 μl peptide dilution, 40 μl TGA substrate and 40 μl plasma were used as described in the specific description.
(§6) The plasmas used in the experiments were fresh frozen and were deficient in Factor V, Factor VII/VIIa, Factor VIII, Factor X or Factor XI (George King Bio-Medical, Inc.). Residual coagulation factor levels of deficient plasmas were specified as less than 1%.
(§7) For each depleted plasma used in the experiments, compounds were tested at two concentrations, namely 50 μM and 80, 90 or 100 μM. A negative control was used, in which no test compound was included.

[2] = tested on: Factor V deficient human plasma; experiment: DDPTGA (reagent B) in FV depleted plasma; conditions: compounds at 50 μM and 80, 90 or 100 μM
Method: as §4, §5, §6, §7

C57BI/6 mice = experiment: Acute toxicology in mice; type: in vivo, mouse; conditions: 60 minutes following administration; for Max dose within toxicity category: Severe toxicity (one of the animals died within one hour) / Max dose within toxicity category: Some toxicity (ataxy or catalepsy, no deaths): i.v.
Method: (§1) Toxicology studies involved monitoring of attitude changes due to toxic effects immediately after application and twice daily; monitoring of body weight; histopathology of brain, heart, kidney, liver, lung. Experiments were performed in C57131/6 mice.
(§2) C57BI/6 mice weighing 18-20 g were administered with compounds in a suitable vehicle i.v. in the tail vein or i.p. or s.c at 10 ml/kg. Quantities of the compounds administered were in the range of 0.075 to 125 mg/kg (i.v.), 15-125 mg/kg (i.p.) and 125 mg/kg (s.c.). There were four mice per group. Attitude changes due to toxic effects were monitored immediately after administration of the compound and for 60 minutes thereafter. Body weight was monitored for five days after administration. At day 5 after administration, mice were culled and autopsy performed. Brain, heart, kidney, liver, lung and spleen were biopsied.
(§3) In the above table, the maximum dose tested giving rise to no detected toxicity, some toxicity or severe toxicity over the period of 60 minutes following administration is reported. “No detected toxicity” indicates no acute toxic observations.

Acute toxicology in mice = type: in vivo, mouse; conditions: C57BL/6, mouse, in vivo, 60 minutes following administration, read-out: Max dose within toxicity category: No detected toxicity
Method: as §1, §2, §3

FVIII inhibited plasma = experiment: Defined Dual-Pathway Thrombin Generation Assay (DDPTGA, reagent C high), FVIII inhibited plasma; type: biochemical, human; conditions: for Peak IIa FEIBA EU / Peak IIa FVIIa EU / Peak Time FEIBA EU / Peak Time FVIIa EU: FVIII inhibited plasma; for Activity in the Defined Dual-Pathway Thrombin Generation Assay: summary, FVIII inhibited or deficient plasma
physchem = conditions: for solubility kinetic: pH 7.4
[3] = tested on: Factor X deficient human plasma; experiment: DDPTGA (reagent B) in FX depleted plasma; conditions: compounds at 50 μM and 80, 90 or 100 μM
Method: as §4, §5, §6, §7

[4] = tested on: Factor XI deficient human plasma; experiment: DDPTGA (reagent B) in FXI depleted plasma; conditions: compounds at 50 μM and 80, 90 or 100 μM
Method: as §4, §5, §6, §7

[5] = tested on: human FVIII inhibited plasma; experiment: Defined Intrinsic Thrombin Generation Assay (DITGA, triggered by FXIa and phospholipids); type: biochemical; conditions: for Activity in the Defined Intrinsic Thrombin Generation Assay: summary
[6] = tested on: Factor VIII deficient human plasma; experiment: DDPTGA (reagent B) in FVIII depleted plasma; type: biochemical; conditions: compounds at 50 μM and 80, 90 or 100 μM; further: key: '+' means stimulates; '−' means does not stimulate
Description: Preferably, Reagent C high is used.

FVIII deficient plasma = experiment: Defined Dual-Pathway Thrombin Generation Assay (DDPTGA, reagent C high), FVIII deficient plasma; type: biochemical, human; conditions: for Peak IIa FVIII EU / Peak Time FVIII EU: FVIII deficient plasma

Row | Compound | Stimulation of thrombin generation [1] | Stimulation of thrombin generation [2] | Max dose within toxicity category: Severe toxicity (one of the animals died within one hour) (C57BI/6 mice) | NOAEL at 1 h (Acute toxicology in mice; ip) | NOAEL at 1 h (Acute toxicology in mice; iv) | Peak IIa FEIBA EU (FVIII inhibited plasma; peptide 100 μM) | Peak IIa FVIIa EU (FVIII inhibited plasma; peptide 100 μM) | Peak Time FEIBA EU (FVIII inhibited plasma; peptide 100 μM) | Peak Time FVIIa EU (FVIII inhibited plasma; peptide 100 μM) | Activity in the Defined Dual-Pathway Thrombin Generation Assay (FVIII inhibited plasma) | solubility (physchem; pH 7.4, Aqueous solubility) | Stimulation of thrombin generation [3] | Stimulation of thrombin generation [4] | Thrombin peak time given as FEIBA equivalent activity ([5]; peptide 6.25 μM) | Thrombin peak time given as FEIBA equivalent activity ([5]; peptide 12.5 μM) | Thrombin peak time given as FEIBA equivalent activity ([5]; peptide 25 μM) | Thrombin peak time given as FEIBA equivalent activity ([5]; peptide 50 μM) | Thrombin peak time given as FEIBA equivalent activity ([5]; peptide 100 μM) | Activity in the Defined Intrinsic Thrombin Generation Assay [5] | Stimulation of thrombin generation [6] | other results
1 | CC[C@@H](C)[C@@H](NC(=O)[C@@H](CS)NC(C)=O)C(=O)N[C@H](CCSC)C(=O)N[C@H](Cc1ccccc1)C(=O)N[C@H](Cc1c[nH]c2ccccc12)C(=O)N[C@H](Cc1ccc(O)cc1)C(=O)N[C@H](CC(=O)O)C(=O)N[C@H](CCC(=O)O)C(=O)N[C@H](Cc1ccc(O)cc1)C(=O)N[C@H](CCC(=O)O)C(N)=O [Peptide B03, Ac-cimfwydeye-NH2] (Ac-[dC][dI][dM][dF][dW][dY][dD][dE][dY][dE]-NH2) | + | − | 15 mg/kg | 15 mg/kg | 1.5 mg/kg | 12.3 mU/ml | 0.6 nM | BLS (BLS = below lowest standard.) | BLS (BLS = below lowest standard.) | possess activity | 114 µM (≈ 164 µg/mL) | + | + | 454 mU/ml | 602 mU/ml | 738 mU/ml | 1030 mU/ml | 1394 mU/ml | possess activity | + | Peak IIa FEIBA EU (FVIII inhibited plasma; peptide 40 μM): 7.2 mU/ml; Peak IIa FVIIa EU (FVIII inhibited plasma; peptide 40 μM): 0.2 nM; Peak Time FEIBA EU (FVIII inhibited plasma; peptide 40 μM): BLS (BLS = below lowest standard.); Peak Time FVIIa EU (FVIII inhibited plasma; peptide 40 μM): BLS (BLS = below lowest standard.); solubility kinetic (physchem): 114 µM (≈ 164 µg/mL); Effect on both peak time and peak IIa of thrombin generation (FVIII deficient plasma; DDPTGA, comment on Table 10): positively affected; Peak IIa FVIII EU (FVIII deficient plasma; peptide 40 μM): 4.8 mU/ml; Peak Time FVIII EU (FVIII deficient plasma; peptide 40 μM): 8.7 mU/ml; Peak IIa FVIII EU (FVIII deficient plasma; peptide 100 μM): 5.3 mU/ml; Peak Time FVIII EU (FVIII deficient plasma; peptide 100 μM): 7.5 mU/ml
2 | Ac-WDLYFEIVW-NH2 [Peptide A05] | + | − | 15 mg/kg | 15 mg/kg |  | BLS (BLS = below lowest standard.) | BLS (BLS = below lowest standard.) | BLS (BLS = below lowest standard.) | BLS (BLS = below lowest standard.) |  | 6 µM | + | + | 390 mU/ml | 487 mU/ml | 562 mU/ml | 631 mU/ml | 816 mU/ml | possess activity | + | Max dose within toxicity category: Some toxicity (ataxy or catalepsy, no deaths) (C57BI/6 mice): 1.5 mg/kg; Peak IIa FEIBA EU (FVIII inhibited plasma; peptide 50 μM): BLS (BLS = below lowest standard.); Peak IIa FVIIa EU (FVIII inhibited plasma; peptide 50 μM): BLS (BLS = below lowest standard.); Peak Time FEIBA EU (FVIII inhibited plasma; peptide 50 μM): BLS (BLS = below lowest standard.); Peak Time FVIIa EU (FVIII inhibited plasma; peptide 50 μM): BLS (BLS = below lowest standard.); solubility kinetic (physchem): 6 µM; Peak IIa FVIII EU (FVIII deficient plasma; peptide 50 μM): BLS (BLS = below lowest standard.); Peak Time FVIII EU (FVIII deficient plasma; peptide 50 μM): BLS (BLS = below lowest standard.); Peak IIa FVIII EU (FVIII deficient plasma; peptide 100 μM): BLS (BLS = below lowest standard.); Peak Time FVIII EU (FVIII deficient plasma; peptide 100 μM): BLS (BLS = below lowest standard.)
3 | Ac-WDLYFEIVWE [Peptide A06] | + | + | 25 mg/kg | 25 mg/kg | 1 mg/kg | BLS (BLS = below lowest standard.) | BLS (BLS = below lowest standard.) | BLS (BLS = below lowest standard.) | 0.4 nM | possess activity | 164 µM | + | + | 571 mU/ml | 750 mU/ml | 843 mU/ml | 919 mU/ml | 879 mU/ml | possess activity | + | Max dose within toxicity category: Some toxicity (ataxy or catalepsy, no deaths) (C57BI/6 mice): 5 mg/kg; Peak IIa FEIBA EU (FVIII inhibited plasma; peptide 50 μM): BLS (BLS = below lowest standard.); Peak IIa FVIIa EU (FVIII inhibited plasma; peptide 50 μM): BLS (BLS = below lowest standard.); Peak Time FEIBA EU (FVIII inhibited plasma; peptide 50 μM): BLS (BLS = below lowest standard.); Peak Time FVIIa EU (FVIII inhibited plasma; peptide 50 μM): BLS (BLS = below lowest standard.); solubility (physchem; pH 7.4, Solubility in PBS): 164 µM; Peak IIa FVIII EU (FVIII deficient plasma; peptide 50 μM): BLS (BLS = below lowest standard.); Peak Time FVIII EU (FVIII deficient plasma; peptide 50 μM): BLS (BLS = below lowest standard.); Peak IIa FVIII EU (FVIII deficient plasma; peptide 100 μM): BLS (BLS = below lowest standard.); Peak Time FVIII EU (FVIII deficient plasma; peptide 100 μM): BLS (BLS = below lowest standard.)
4 | H-ERMEFDVWDLYFEIVW-NH2 [Peptide A09] | + | − |  |  | 15 mg/kg |  |  |  |  | possess activity | 63 µM | + | + | 600 mU/ml | 742 mU/ml | 896 mU/ml | 1170 mU/ml | 1365 mU/ml | possess activity | + | Max dose within toxicity category: No detected toxicity (C57BI/6 mice; i.p.): 15 mg/kg; Peak IIa FEIBA EU (FVIII inhibited plasma; peptide 25 μM): BLS (BLS = below lowest standard.); Peak IIa FVIIa EU (FVIII inhibited plasma; peptide 25 μM): BLS (BLS = below lowest standard.); Peak Time FEIBA EU (FVIII inhibited plasma; peptide 25 μM): 7.9 mU/ml; Peak Time FVIIa EU (FVIII inhibited plasma; peptide 25 μM): 0.2 nM; Peak IIa FEIBA EU (FVIII inhibited plasma; peptide 50 μM): 8.6 mU/ml; Peak IIa FVIIa EU (FVIII inhibited plasma; peptide 50 μM): BLS (BLS = below lowest standard.); Peak Time FEIBA EU (FVIII inhibited plasma; peptide 50 μM): BLS (BLS = below lowest standard.); Peak Time FVIIa EU (FVIII inhibited plasma; peptide 50 μM): BLS (BLS = below lowest standard.); solubility kinetic (physchem): 63 µM; solubility (physchem; pH 7.4, Solubility in PBS pH 7.4): ≥ 25 µM; Peak IIa FVIII EU (FVIII deficient plasma; peptide 25 μM): BLS (BLS = below lowest standard.); Peak Time FVIII EU (FVIII deficient plasma; peptide 25 μM): 15.6 mU/ml; Peak IIa FVIII EU (FVIII deficient plasma; peptide 50 μM): BLS (BLS = below lowest standard.); Peak Time FVIII EU (FVIII deficient plasma; peptide 50 μM): 27.2 mU/ml
